According to US5424424A, “Tartaric acid derivatives of substituted dibenzoxazepine compounds, pharmaceutical compositions and methods of use” (G. D. Searle & Co., priority 1993, dated 1995):
Counter-ions that a name gives are not always drawn.

Key:
[1] = tested on: mice; assay: Writhing Assay (phenylbenzoquinone-induced writhing, analgesia); assay type: in vivo, Charles River male albino mice; conditions: 30 mg per kilogram, intragastric, 30 minutes before PBQ i.p.; analgesia = writhes equal to or less than one-half the median of saline control
Excerpt: The Writhing Assay is one of the most widely-used experimental procedures for measuring the analgesic activity of different narcotic and nonnarcotic analgesic agents, and involves the continuous, chemically-induced pain of visceral origin to an animal, such as a mouse or rat. [Gyires et al., Arch. int. Pharmacodyn, 267, 131-140 (984); C. Vander Wende et al., Fed. Proc., 15, 494 (1956); Koster et al., Fed. Proc., 18, 412 (1959); and Witken et al., J. Pharmacol. exp. Ther., 133, 400-408 (1961).] Chemicals which may be used to induce this pain include phenylbenzoquinone (PBQ) and acetic acid. As a result of the chemical irritation to the animal, a characteristic stretching and writhing of the animal (dorsiflexion of the animal's back, extension of its hindlimbs and the strong contraction of its abdominal musculature) will generally occur. […] Drugs which reduce the number of writhes of the animal appear to restore the normal nociceptive threshold of the animal.
Charles River male albino mice, weighing 20 to 30 grams, were used in this assay.
Thirty minutes after intragastric administration to ten mice of 30 mg per kilogram of body weight of a compound of the present invention ("test compound"), […] per 10 g of body weight of a 0.025% w/v solution of PB was injected intraperitoneally into each mouse. Ten mice which were given saline in place of a test compound of the invention were used as a control group.
Five minutes later, each mouse was individually placed into a glass beaker for observation, and the number of writhes occurring during the following ten-minute period was counted.
A test compound was considered to have produced analgesia in a mouse if, in accordance with the conditions set forth above, and under the test criteria employed for this assay, after the administration of 30 mg per kilogram of body weight of a compound of the present invention to the mouse, the number of writhes elicited by a mouse injected with PBQ was equal to, or less than, one-half the median number of writhes recorded for the saline-treated control group of mice that day, as described by Taber in "Predictive Value of Analgesic Assays in Mice and Rats," Advances in Biochemical Psychopharmacology, 8, 191 (1974).
The results for the particular compounds of the present invention analyzed in this assay, and discussed in the examples identified below which correspond thereto, are presented in Table 1 hereinbelow as fractions under the heading "WRITHING ASSAY." The fractions indicate the number of mice out of ten in which a test compound produced analgesia.

[2] = tested on: prostaglandin E2-induced contractions of segments of guinea pig ileum; assay: Prostaglandin (PGE) Antagonism Assay in guinea pig ileum; assay type: tissue-based, Male albino guinea pigs; conditions: dose ratio of prostaglandin E2 EC50 values; initial concentration 3 micromolar test compound, 37° C., incubated thirty minutes
Procedure: In order to determine the effectiveness of several of the compounds of the present invention ("test compounds") as prostaglandin E2 antagonists,a prostaglandin antagonism assay was conducted, as described below, to determine the ability of these compounds to inhibit prostaglandin E2 -induced contractions of segments of guinea pig ileum.
Male albino guinea pigs weighing 200 to 500 grams were sacrificed by cervical dislocation. The ilea were then quickly removed from the guinea pigs and placed in a modified Tyrode solution, a solution which is known to those skilled in the art, containing one-half of the usual amount of magnesium ions.
Segments of ileum about 2 cm long were then cut and mounted in a 10 mL tissue bath containing the modified Tyrode solution. The solution was maintained at 37° C. and aerated with a gaseous mixture of 95% oxygen and 5% carbon dioxide. Data for a control prostaglandin E2 dose response curve plotting concentration of prostaglandin E2 versus the intensity of contractions, detected isotonically, was then obtained by experimentally adjusting the dose of the prostaglandin E2 being injected into the tissue bath, in a manner known by those of skill in the art.
Solutions or suspensions containing an initial concentration (3 micromolar) of a test compound in modified Tyrode solution ("test solutions/suspensions") were then separately substituted for the control bath solution. Each test solution/suspension was then kept in constant contact with the ileum tissue, except for brief periods to drain the bath in preparation for rinsing with fresh test solution/suspension. A second prostaglandin E2 dose response curve was then generated for prostaglandin E2 in the presence of a test compound.
A control dose response curve is produced in isolated segments of guinea pig ileum mounted in an automated apparatus with six concentrations of prostaglandin E2. A solution or suspension of test compound is substituted for the control bathing solution and is incubated for thirty minutes. An additional prostaglandin E2 dose response curve is then performed in the presence of the test compound. A dose ratio is calculated from the EC50 values obtained from duplicate replications on each concentration of the test compound.
A dose ratio of EC50 doses was calculated from the results of each test in a manner known by those of skill in the art, and described above.
The compounds of the present invention which were tested in this assay, and for which results are presented in Table 1, correspond to the particular examples specified in Table 1.

Row | SMILES | WRITHING ASSAY I.G.: number of mice out of ten in which a test compound produced analgesia [1] | PGE ANTAGONISM IN GUINEA PIG ILEUM Dose Ratio [2]
1 | CC(=O)O[C@@H](C(=O)NCc1ccncc1)[C@@H](OC(C)=O)C(=O)N1Cc2ccccc2Oc2ccc(Cl)cc21 [Example 7, αR,βR-Bis(acetyloxy)-8-chloro-γ-oxo-N-(4-pyridinylmethyl)dibenz[b,f][1,4]oxazepine-10(11H)-butanamide, hydrochloride] | 8/10 | 1.2
2 | CC(=O)O[C@H](C(=O)NCCN(C)C)[C@H](OC(C)=O)C(=O)N1Cc2ccccc2Oc2ccc(Cl)cc21 [Example 2, αS,βS-Bis(acetyloxy)-8-chloro-N-[2-(dimethylamino)ethyl]-γ-oxodibenz[b,f][1,4]oxazepine-10(11H)-butanamide, monohydrochloride] | 0/10 | 
3 | CC(=O)O[C@H](C(=O)NCc1cccnc1)[C@H](OC(C)=O)C(=O)N1Cc2ccccc2Oc2ccc(Cl)cc21 [Example 4, αS,βS-Bis(acetyloxy)-8-chloro-γ-oxo-N-(3-pyridinylmethyl)-dibenz[b,f][1,4]oxazepine-10(11H)-butanamide, hydrochloride] | 9/10 | 0.74
4 | CC(=O)O[C@@H](C(=O)NCc1cccnc1)[C@@H](OC(C)=O)C(=O)N1Cc2ccccc2Oc2ccc(Cl)cc21 [Example 8, αR,βR-Bis(acetyloxy)-8-chloro-γ-oxo-N-(3-pyridinylmethyl)dibenz[b,f][1,4]oxazepine-10(11H)]-butanamide, hydrochloride] | 6/10 | 2.4
5 | CC(=O)O[C@H](C(=O)NCc1ccccn1)[C@H](OC(C)=O)C(=O)N1Cc2ccccc2Oc2ccc(Cl)cc21 [Example 5, αS,βS-Bis(acetyloxy)-8-chloro-γ-oxo-N-(2-pyridinylmethyl)dibenz[b,f][1,4]oxazepine-10(11H)-butanamide, hydrochloride] | 5/10 | 1.7
6 | CC(=O)O[C@H](C(=O)NCc1ccncc1)[C@H](OC(C)=O)C(=O)N1Cc2ccccc2Oc2ccc(Cl)cc21 [Example 3, αS,βS-Bis(acetyloxy)-8-chloro-γ-oxo-N-(4-pyridinylmethyl)-dibenz[b,f][1,4]oxazepine-10(11H)-butanamide, hydrochloride] | 5/10 | 1.3
7 | CC(=O)O[C@@H](C(=O)NCc1ccccn1)[C@@H](OC(C)=O)C(=O)N1Cc2ccccc2Oc2ccc(Cl)cc21 [Example 9, αR,βR-Bis(acetyloxy)-8-chloro-γ-oxo-N-(2-pyridinylmethyl)dibenz[b,f][1,4]oxazepine-10(11H)-butanamide, hydrochloride] | 5/10 | 1.1
